For 9 compounds, Ki results are on record in ChEMBL document CHEMBL3639372, “Disubstituted azepan orexin receptor antagonists” (2014).

The target in this experiment is T1, Orexin/Hypocretin receptor type 1 (Rattus norvegicus, UniProt P56718).
T1 sequence (P56718 whole entry): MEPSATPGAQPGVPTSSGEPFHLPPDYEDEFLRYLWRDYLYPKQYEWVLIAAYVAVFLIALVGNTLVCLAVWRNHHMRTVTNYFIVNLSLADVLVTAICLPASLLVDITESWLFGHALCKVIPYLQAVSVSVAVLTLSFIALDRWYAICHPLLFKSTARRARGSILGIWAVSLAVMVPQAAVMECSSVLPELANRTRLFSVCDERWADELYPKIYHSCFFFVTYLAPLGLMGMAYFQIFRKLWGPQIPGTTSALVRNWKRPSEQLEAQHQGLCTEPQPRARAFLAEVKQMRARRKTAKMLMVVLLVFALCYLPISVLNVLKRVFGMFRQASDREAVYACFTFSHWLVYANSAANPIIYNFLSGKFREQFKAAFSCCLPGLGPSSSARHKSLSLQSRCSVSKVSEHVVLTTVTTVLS
Put plainly: Radioligand Binding Assay: Compound potency can be assessed by a radioligand binding assay (described in Bergman et. al. Bioorg. Med. Chem. Lett. 2008, 18, 1425-1430) in which the inhibition constant (Ki) is determined in membranes prepared from CHO cells expressing either the orexin-1 (OX1) or orexin-2 (OX2) receptor. It counts as cell membranes.
One may read the Ki as the equilibrium dissociation constant of an inhibitor or competing ligand from its target. Read a low Ki as higher affinity. `Cc1ccc(-n2nccn2)c(C(=O)N2CC(COc3ccc(F)cn3)CCCC2C)c1` (centres undefined) had a Ki of 150 nM.
`Cc1ccc(-c2nccs2)c(C(=O)N2CC(COc3ccc(F)cn3)CCCC2C)c1` (centres undefined) registered a Ki of 73 nM.
To `Cc1ccc(-n2nccn2)c(C(=O)N2CC(COc3ccc(F)c(C)c3)CCCC2C)c1` (centres undefined) belongs 8.7 nM; to `Cc1ccc(-c2ncccn2)c(C(=O)N2CC(COc3ccc(F)c(C)c3)CCCC2C)c1` (centres undefined), 42 nM.
For `Cc1ccc(-c2ncccn2)c(C(=O)N2CC(COc3ccc(F)cn3)CCCC2C)c1` (centres undefined) the value was 310 nM.
To `Cc1cc(OCC2COCC(C)N(C(=O)c3ccccc3-n3nccn3)C2)ccc1F` (centres undefined) belongs 39 nM; to `Cc1ccc(-n2nccn2)c(C(=O)N2CCCCC(COc3ccc(F)c(C)c3)C2)c1` (centres undefined), 15 nM; to `Cc1ccc(-n2nccn2)c(C(=O)N2CC(COc3ccc(F)c(C)c3)COCC2C)c1` (centres undefined), 5.1 nM.
Compound `Cc1cc(OCC2CCCC(C)N(C(=O)c3ccccc3-n3nccn3)C2)ccc1F` (centres undefined) returned a Ki of 50 nM.
